The text below walks through data of PubChem BioAssay AID624285 (Broad Institute, 2012).

Values joined by “and” are separate entries in the source; they are usually repeats but may differ in a detail not shown here. Equal entries are not always repeated. Active and inactive are the calls of the source.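 How the source made its calls: active means signal-decreasing dose-response curve whose fitted half-maximal concentration is at or below twice the highest valid tested dose; inconclusive means flat fit at 30 to 70% signal loss, or poor fit; inactive means the rest.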

The experiment is described as follows: cytotoxicity in mammalian cells, dose response, cytotoxicity control for PDI inhibitor project, cell-based, 24 h, luminescence, cherry-picked samples (AID 624285). The note with it: NIH3T3/HeLa viability, CellTiter-Glo ATP luminescence, 24 h; at 35 µM (top of the series). (ATP-based viability assays read luminescence as a measure of living cells.)
For `O=C(NCc1ccncc1)Nc1cc(Cl)ccc1Cl`, the activity change, negative = cytotoxicity was -6.87% (inactive).
With `CCOC(=O)C1(Cc2ccc(O)cc2)NC(c2ccccc2F)C2C(=O)N(C)C(=O)C21` (configuration not stated), the activity change, negative = cytotoxicity was -15.5% (inactive).
To `O=C(Nc1ccccc1)c1cc(C2CCCCN2C(=O)c2ccccc2)on1` (configuration not stated) belongs -15.5% (inactive); to `Cc1cccc(C)c1NC(=O)CN1CCNCC1`, -9.95% (inactive).
Turning to `CC(=O)OC[C@H]1O[C@@H](Oc2cc(O)cc3oc(-c4ccc(O)cc4)cc(=O)c23)[C@H](O[C@@H]2O[C@@H](C)[C@H](O)[C@@H](O)[C@H]2O)[C@@H](O)[C@@H]1O`, the activity change, negative = cytotoxicity was -6.13% (inactive).
For the molecule `CCCCNC(=O)Nc1ccon1`, the activity change, negative = cytotoxicity was -6.29% (inactive).
Turning to `Cc1noc(C)c1S(=O)(=O)Nc1ccc2c(c1)CC(=O)N([C@H](C)CO)C[C@H](C)[C@H](CN(C)S(=O)(=O)c1ccccc1)O2`, the activity change, negative = cytotoxicity is 3.77% (inactive).
For `O=c1c(O[C@@H]2O[C@H](CO)[C@@H](O)[C@H](O)[C@H]2O)c(-c2ccc(O)cc2)oc2cc(O)cc(O)c12`, the activity change, negative = cytotoxicity is -2.51% (inactive).
To `CC[C@]12c3[nH]c4cc(-c5ccco5)ccc4c3CCN1C(=O)[C@@H](CC(=O)NCCCOC)C[C@@H]2C(=O)N1CCN(C(=O)c2ccco2)CC1` belongs -9.72% (inactive); to `Cc1cc(C)c(C)c(S(=O)(=O)N2CCC(C(=O)N(C)Cc3nc4ccccc4c(=O)[nH]3)CC2)c1C`, -5.52% (inactive); to `C[C@@H]1O[C@@H](Oc2c(-c3ccc(O)c(O)c3)oc3cc(O)cc(O)c3c2=O)[C@H](O)[C@H](O)[C@H]1O`, -1.28% (inactive) and -10.2% (inactive).
To `O=C(C[C@H]1C[C@H](C(=O)N2CCCCC2)[C@@]2(CCc3ccccc3)c3[nH]c4cc(-c5ccco5)ccc4c3CCN2C1=O)NCCC1=CCCCC1` belongs -13% (inactive); to `O=C1C[C@@H](c2ccc(O[C@@H]3O[C@H](CO)[C@@H](O)[C@H](O)[C@H]3O)cc2)Oc2cc(O)ccc21`, -5.71% (inactive).
To `Cc1cccc(NC(=S)NCC23C=CC(O2)C2C(=O)N(c4ccc(Cl)cc4)C(=O)C23)c1` (configuration not stated) belongs -20.9% (inactive).
In the case of `Cc1c(-n2cc(C(=O)c3cc(Br)ccc3O)cc(C#N)c2=O)c(=O)n(-c2ccccc2)n1C`, the activity change, negative = cytotoxicity is -12.8% (inactive).
As to `O=C(CNC(=O)c1n[nH]c2ccccc12)Nc1cc(Cl)ccc1Cl`, the activity change, negative = cytotoxicity is -8.33% (inactive).
To `O=C(CN(CCc1ccccc1)C(=O)CNS(=O)(=O)c1ccccc1)NCC1CCCO1` (configuration not stated) belongs -1.76% (inactive).
To `CNC[C@@H]1Oc2c(NS(C)(=O)=O)cccc2C(=O)N([C@@H](C)CO)C[C@H]1C` belongs 1.39% (inactive); to `O=C1/C(=C\c2ccc(O)cc2)CCC1CNc1ccc(Cl)cc1` (configuration not stated), -7.39% (inactive); to `CC(=O)Nc1cccc(NC(=O)CCc2ccccc2)c1`, -12% (inactive).
To `CCOc1ccc2[nH]c(=O)c(CN(CCO)C(=O)CC)cc2c1` belongs -9.33% (inactive); to `Cc1noc(C)c1S(=O)(=O)Nc1ccc2c(c1)CC(=O)N([C@H](C)CO)C[C@H](C)[C@@H](CN(C)S(=O)(=O)c1ccc(F)cc1)O2`, 4.98% (inactive); to `CN1C(=O)NC(c2ccccc2)C2=C1CN(c1cccc(C(F)(F)F)c1)C2=O` (configuration not stated), -4.45% (inactive).
In the case of `CC(=O)c1ccc(N2CCN(C(=O)c3ccc4[nH]c(C)c(C)c4c3)CC2)cc1`, the activity change, negative = cytotoxicity is -9.89% (inactive).
Regarding `COc1cc(C2C(C(C)=O)=C(O)C(=O)N2CCc2c[nH]c3ccccc23)ccc1O` (configuration not stated), the activity change, negative = cytotoxicity is -5.75% (inactive).
To `Cn1nnnc1SCC(=O)Nc1cc(C(F)(F)F)ccc1N1CCOCC1` belongs -9.83% (inactive); to `C[C@@H]1CN([C@H](C)CO)C(=O)Cc2cc(NC(=O)Nc3ccccc3)ccc2O[C@@H]1CN(C)Cc1ccccc1`, -3.74% (inactive); to `C[C@H]1CN([C@@H](C)CO)C(=O)c2cccc(NS(C)(=O)=O)c2O[C@@H]1CN(C)Cc1ccc(Oc2ccccc2)cc1`, -9.08% (inactive).
To `CC(=O)N(C)C1(c2nnnn2CCOC(=O)Nc2ccc(Cl)cc2)CCCCC1` belongs -9.52% (inactive); to `CC(Cc1ccccc1Sc1ccccc1O)N(C)C` (configuration not stated), -11.9% (inactive).
With `C[C@@H]1O[C@@H](O[C@@H]2C(=O)c3c(O)cc(O)cc3O[C@H]2c2ccc(O)c(O)c2)[C@H](O)[C@H](O)[C@H]1O`, the activity change, negative = cytotoxicity was -7.93% (inactive).
To `C[C@@H]1CN([C@@H](C)CO)C(=O)c2cccc(NS(C)(=O)=O)c2O[C@@H]1CN(C)Cc1ccc(Oc2ccccc2)cc1` belongs -5.95% (inactive).
Consider `C[C@H](CO)N1C[C@H](C)[C@H](CN(C)S(=O)(=O)c2ccc(F)cc2)Oc2ccc(NC(=O)Cc3cn(C)c4ccccc34)cc2C1=O`, for which the activity change, negative = cytotoxicity is -6.42% (inactive).
To `COC(=O)C(Cc1ccc(O)cc1)N1Cc2ccccc2C1=O` (configuration not stated) belongs -9.13% (inactive).
To `CN(C)CCN(C(=O)c1ccc(S(=O)(=O)N2CCc3ccccc32)cc1)c1nc2ccc(F)cc2s1` belongs -13.9% (inactive); to `C[C@@H]1CN([C@H](C)CO)C(=O)c2cc(NC(=O)Cc3cn(C)c4ccccc34)ccc2O[C@@H]1CN(C)S(=O)(=O)c1ccc(F)cc1`, -8.29% (inactive); to `CN(C)c1ccc(NC(=O)CN2C(=O)CC(c3ccccc3)=Nc3ccccc32)cc1`, -19.2% (inactive).
To `CCC(=O)Nc1ccc(-c2cc3ccccc3oc2=O)cc1` belongs -7.54% (inactive); to `CCOc1ccc2nc(NS(=O)(=O)Cc3ccccc3)sc2c1`, -6.13% (inactive); to `CC(O)(c1cccnc1)c1nc(-c2cc(F)cc(F)c2)cs1` (configuration not stated), -6.67% (inactive).
For the molecule `CCOc1ccc(NC(=O)CCc2nnc3ccc(N4CCN(C)CC4)nn23)cc1`, the activity change, negative = cytotoxicity is -6.93% (inactive).
To `O=C(Cc1ccccc1)Nc1cccc(C(=O)N/N=C/c2ccco2)c1` belongs -4.58% (inactive).
To `Cc1cccc(C(=O)OCC(=O)N2CCCCCC2)c1O` belongs -10.1% (inactive); to `COc1cccc(/C=C2\CCCCC2=O)c1`, -7.65% (inactive); to `Cc1ccc(CN(c2ccc(C(=O)NCc3ccccn3)cc2)S(C)(=O)=O)cc1`, -10.4% (inactive).
`C[C@@H]1CN([C@H](C)CO)C(=O)Cc2cc(NC(=O)Nc3ccccc3)ccc2O[C@H]1CN(C)Cc1ccccc1`: the activity change, negative = cytotoxicity was 1.49% (inactive).
Consider `CCCCn1c(SCC(=O)NC2CCS(=O)(=O)C2)nc2ccccc2c1=O` (configuration not stated), for which the activity change, negative = cytotoxicity was -8.17% (inactive).
Regarding `COc1ccc(CNC(=O)c2ccc(CS(=O)Cc3cccc(Cl)c3)o2)cc1` (configuration not stated), the activity change, negative = cytotoxicity was -9.18% (inactive).
`CC1CC(C)CN(C(=O)COC(=O)c2ccc[nH]c2=O)C1` (configuration not stated): the activity change, negative = cytotoxicity is -4.68% (inactive).
To `COCC(=O)NC1(c2nnnn2CCOC(=O)Nc2ccc(Cl)cc2)CCCCC1` belongs -7.94% (inactive).
To `CC[C@]12c3[nH]c4cc(-c5ccco5)ccc4c3CCN1C(=O)[C@@H](CC(=O)NCc1ccc(OC)c(OC)c1)C[C@@H]2C(=O)N1CCN(C(=O)C2CC2)CC1` belongs -17.7% (inactive); to `C[C@H]1CN([C@@H](C)CO)C(=O)c2cc(NC(=O)Cc3cn(C)c4ccccc34)ccc2O[C@H]1CN(C)S(=O)(=O)c1ccc(F)cc1`, -5.48% (inactive); to `CSc1cccc(NC(=O)CN(C)S(=O)(=O)c2ccc(F)cc2)c1`, -8.11% (inactive).
As for `CN(C)C(=O)CSc1nnc([C@H](Cc2ccccc2)NC(=O)OC(C)(C)C)o1`, the activity change, negative = cytotoxicity was -9.45% (inactive).
To `C[C@H](CO)N1C[C@H](C)[C@H](CN(C)Cc2ccc(Oc3ccccc3)cc2)Oc2c(NS(C)(=O)=O)cccc2C1=O` belongs -6.82% (inactive); to `Cc1cc2c3c(c1)C1(C(=O)N3C(C)(C)CC2C)C(C#N)=C(N)Oc2n[nH]c(C)c21` (configuration not stated), -11.6% (inactive).
Turning to `CC1CCCN(c2cc3c(cc2[N+](=O)[O-])C(=O)N(c2ccccc2)C3=O)C1` (configuration not stated), the activity change, negative = cytotoxicity was 0.75% (inactive).
Regarding `Cc1noc(C)c1S(=O)(=O)Nc1ccc2c(c1)CC(=O)N([C@H](C)CO)C[C@@H](C)[C@H](CN(C)S(=O)(=O)c1ccc(F)cc1)O2`, the activity change, negative = cytotoxicity is 4.61% (inactive).
`CN(C1=NC(=O)C(CC(=O)Nc2ccc(Br)cc2)S1)c1ccc(O)cc1` (configuration not stated): the activity change, negative = cytotoxicity is -8.95% (inactive).
To `COc1ccccc1NC(=O)c1ccc(NC(=O)COC(=O)c2cccnc2Cl)cc1` belongs -3.13% (inactive).
To `CN1CCN(C(=O)CSc2nnc(COc3ccc(Cl)cc3)o2)CC1` belongs -3.96% (inactive); to `FC(F)(F)c1cccc(NC(=S)NCc2ccccn2)c1`, -2.29% (inactive).
For `COc1cc(CCC(=O)OCC(=O)Nc2cc(S(=O)(=O)N3CCOCC3)ccc2Cl)cc(OC)c1OC`, the activity change, negative = cytotoxicity was -2.35% (inactive).
With `Cc1ccc2nsnc2c1NC(=O)c1cccnc1Cl`, the activity change, negative = cytotoxicity was -3.17% (inactive).
To `O=C1NC[C@H](Cc2ccc(O)cc2)N(CC2CCCCC2)C1=O` belongs -25.4% (inactive).
In the case of `CC1(C(=O)Nc2cccc3c2CCCC3)CCN1C(=O)c1cccc(F)c1` (configuration not stated), the activity change, negative = cytotoxicity was -14.8% (inactive).
On to `CCCc1cc(=O)[nH]c(SCCOc2ccc(OCC)cc2)n1`, for which the activity change, negative = cytotoxicity is -5.03% (inactive).
